The values that follow come from US20230165888A1, “OLIGONUCLEOTIDE HAVING ANTI-INFLAMMATORY ACTIVITY” (priority 2019, published 2023).

Holding throughout (assay type): cell-based
The test system of data set [1] is mouse primary astrocytes. Description: NO production in mouse primary astrocytes stimulated with LPS + interferon-gamma. Particulars: LPS 100 ng/ml + interferon-gamma 50 unit/ml, oligonucleotide after 2 hours, FIG. 6. As for the experimental part: (§1) The prepared astrocytes were treated with LPS (100 ng/ml)+interferon-gamma (50 unit/ml) for inflammatory stimulation, and allowed to stand for 2 hours, and then treated with the oligonucleotide (15 bp Oligo25, SEQ ID NO: 11) to confirm the amount of NO produced and the expression amount of cytokines.

In data set [2] the test system is BV2 cells, a mouse microglia cell line. Description: NO production in BV2 microglia stimulated with LPS + interferon-gamma. The following applies: LPS 100 ng/ml + interferon-gamma 50 unit/ml, oligonucleotide after 2 hours, FIG. 4.
Data set [3] deals with mouse primary chondrocytes. Description: Osteoarthritis marker gene expression in IL-1β-treated mouse primary chondrocytes (real-time PCR). The following applies: oligonucleotide 10 ng/mL 2 hours, then IL-1β 6 hours, FIG. 8.
The subject of data set [4] is mouse primary astrocytes. Description: Cytokine gene expression in mouse primary astrocytes (PCR). The following applies: LPS 100 ng/ml + interferon-gamma 50 unit/ml, FIG. 7. As for the experimental part:
as §1
The expression amount of cytokines was confirmed by measuring the expression level of the cytokine genes using the conventional PCR analysis described in Example 5 above, and the concentration of cytokine proteins in the cell culture using Western blotting.

Data set [5] deals with BV2 cells, a mouse microglia cell line. Description: Pro-inflammatory cytokine gene expression in BV2 microglia (PCR). The following applies: LPS 100 ng/ml + interferon-gamma 50 unit/ml, FIG. 5. Here is the method: The expression amount of cytokines was confirmed by measuring the expression level of cytokine genes in the BV2 cells using conventional PCR analysis, and the specific method is as follows. Total ribonucleic acid (RNA) was extracted from the treated cells using a TRIZOL reagent (Invitrogen, Carlsbad, Calif., United States). Reverse transcription (RT) was carried out using Superscript II reverse transcriptase (Invitrogen) and oligo (dT) primers. PCR amplification was carried out in a C1000 Touch Thermal Cycler (Bio-Rad, Richmond, Calif., United States) at an annealing temperature of 55-60° C. in 25-32 cycles using specific primer sets. The PCR product having ethidium bromide was electrophoresed on a 1% agarose gel and irradiated with ultraviolet rays to observe bands.

For the sequence “AGG GAG GGA GGG AGG (DNA AGGGAGGGAGGGAGG; listed as DNA, chemistry not given here) [15 bp Oligo25, 15 bp oligonucleotide with ratio of adenosine and guanosine 1:3]”, the NO production result in data set [1] is “NO production was reduced in proportion to the treatment concentration”. In addition, in data set [2], the NO production result is reported as “NO production was reduced in proportion to the treatment concentration”. For the same sequence, in data set [3], the “expression level of ADAMTS5 gene” value was “increased”, the “expression level of MMP3 gene” value is “reduced”, the “expression level of MMP9 gene” value is reported as “reduced” and the “expression level of MMP12 gene” value was “reduced”. Further, in data set [3], the “expression level of MMP13 gene” value is given as “reduced”. Moreover, in data set [4], the “expression level of IL-1β gene” value was “significantly reduced”, the “expression level of IL-6 gene” value is given as “significantly reduced”, the “expression level of TNF-α gene” value is reported as “significantly reduced” and the “expression level of anti-inflammatory cytokine IL-10 gene” value is on record as “significantly increased”. In data set [5], the “expression level of IL-1β gene” value is on record as “significantly reduced”, the “expression level of IL-6 gene” value is “significantly reduced” and the “expression level of TNF-α gene” value was “significantly reduced”.
